According to article PMC11303563 (Communications Medicine, 2024):
Several values for one entry are separate records, joined by “and”; a condition that tells them apart may be missing. Equal values may be shown once.

Columns and labels:
[1] = test system: high-fat diet (HFD)-induced obesity model mice; assay: Body weight of high-fat diet-induced obesity model mice; assay type: in vivo, C57BL/6J mice; design: Body weight, Mean Diff. ND vs. treated: unit not given here; details: for Body weight, 95.00% CI of diff. ND vs. treated / Body weight, Mean Diff. ND vs. treated: ND group as comparator; for Body weight, 95.00% CI of diff. ND vs. treated / Body weight, Mean Diff. ND vs. treated / Body weight, 95.00% CI of diff. Vehicle vs. treated / Body weight, Mean Diff. Vehicle vs. treated: Tukey's multiple comparisons test; for Body weight, Mean Diff. Vehicle vs. treated / Body weight, group mean (Fig. 3a) / Body weight, individual mice (Fig. 3a): in g (unit assumed); for Body weight, group mean (Fig. 3a) / Body weight, individual mice (Fig. 3a) / decrease of body weight compared to vehicle: HFD mice; for Body weight, group mean (Fig. 3a): n 10; for decrease of body weight compared to vehicle: 3 weeks
Procedure: The injection was given 6 h after light on. Food consumption and body weights were measured weekly. Food and water were provided to the animals ad libitum. The animals were treated according to the guidelines of Nagoya University, and all experimental procedures were approved by the Animal Experiment Committee of Nagoya University (A210715-003).
(§1) Epididymal adipose tissue was weighed.
(§2) Fig. 3 Effects of intraperitoneal injection of TH analogs on body weight and deposition of visceral fat. […] After three weeks of injection, body weight (a), and weight of the epididymal adipose tissue (b) were measured.

[2] = test system: high-fat diet (HFD)-induced obesity model mice; assay: Weight of epididymal adipose tissue (visceral fat) in HFD mice; assay type: in vivo, C57BL/6J mice; details: for Fig. 3b (weight of epididymal adipose tissue), group mean (Mean 2): n=10; for Fig. 3b (weight of epididymal adipose tissue), group mean (Mean 2) / Fig. 3b (weight of epididymal adipose tissue), Mean Diff. ND vs. treatment (Tukey) / Fig. 3b (weight of epididymal adipose tissue), Mean Diff. Vehicle vs. treatment (Tukey) / Epididymal adipose weight, individual mice (Fig. 3b): in mg (unit assumed); for Fig. 3b (weight of epididymal adipose tissue), Mean Diff. ND vs. treatment (Tukey): ND minus treated; for Fig. 3b (weight of epididymal adipose tissue), Mean Diff. Vehicle vs. treatment (Tukey): Vehicle minus treated
Procedure: as §1, §2

[3] = test system: high-fat diet (HFD)-induced obesity model mice; assay: Serum lipid analysis (total cholesterol, triglycerides) in HFD mice; assay type: in vivo, C57BL/6J mice; design: Serum TC (Fig. 4a), individual mouse values / Serum TG (Fig. 4b), individual mouse values / Serum TC (Fig. 4a), Mean Diff. ND vs. treatment (Tukey) / Serum TC (Fig. 4a), Mean Diff. Vehicle vs. treatment (Tukey) / Serum TC (Fig. 4a), group mean (Mean 2) / Mean Diff., ND vs. treated (Fig. 4b) / Mean Diff., Vehicle vs. treated (Fig. 4b) / Mean (Fig. 4b): unit not given here; details: for Serum TC (Fig. 4a), group mean (Mean 2) / Mean (Fig. 4b): n=10; for Serum TC (Fig. 4a), Mean Diff. ND vs. treatment (Tukey): ND minus treated; for Serum TC (Fig. 4a), Mean Diff. Vehicle vs. treatment (Tukey): Vehicle minus treated; for Mean Diff., ND vs. treated (Fig. 4b) / Mean Diff., Vehicle vs. treated (Fig. 4b): Tukey's multiple comparisons test; for Mean (Fig. 4b): group mean
Procedure: Fig. 4 Effects of TH analogs on the accumulation of lipids in mice. […] After 3 weeks of injection, serum and liver tissues were collected, and the amount of serum cholesterol (a), serum triglycerides (b), liver cholesterol (c), liver triglycerides (d), and liver total lipids (e) were measured.

[4] = In vitro blood-brain barrier permeability assay (BBB kit RBT-24H); assay type: in vitro ADME, rat
Procedure: Therefore, we tested BBB transparency in vitro using the BBB kit RBT-24H (PharmaCo-Cell)[35]. […] Blood-brain barrier permeability assay The blood-brain barrier (BBB) transparency of TH analogs was assessed in vitro using RBT-24H (PharmaCo-Cell)[5] according to the manufacturer 's protocol. […] After 30 min, the assay buffer in the wells mimicking the abluminal side was collected, and the concentration of the compounds was measured using liquid chromatography-mass spectrometry (LC-MS). […] These tips were preconditioned with 20 μL of acetonitrile and 20 μL of 0.1% TFA in purified water. 100 μL of the samples were loaded onto the preconditioned tips, washed with 200 μL of DW, and then eluted with 10 μL of acetonitrile. Triazine (1% vol/vol) was added to the eluent as an internal standard. […] 3 μm; Imtakt, Kyoto, Japan). All the experiments were performed using an Ultimate 3000 UHPLC system coupled with a Q Exactive Plus Orbitrap mass spectrometer (Thermo Fisher Scientific). […] Data were shown as mean ± standard deviation (n=3).

[5] = test system: THR-regulated genes and lipid metabolism-related genes in the liver
THRα = details: cited from earlier work
full-length human THRα = target: T1, full-length human THRα (Homo sapiens, UniProt P10827); assay: [125I]-T3-displacement assay, THRα; details: from IC50 values THRα vs THRβ
T1 sequence (P10827 1-410 isoform P10827-2): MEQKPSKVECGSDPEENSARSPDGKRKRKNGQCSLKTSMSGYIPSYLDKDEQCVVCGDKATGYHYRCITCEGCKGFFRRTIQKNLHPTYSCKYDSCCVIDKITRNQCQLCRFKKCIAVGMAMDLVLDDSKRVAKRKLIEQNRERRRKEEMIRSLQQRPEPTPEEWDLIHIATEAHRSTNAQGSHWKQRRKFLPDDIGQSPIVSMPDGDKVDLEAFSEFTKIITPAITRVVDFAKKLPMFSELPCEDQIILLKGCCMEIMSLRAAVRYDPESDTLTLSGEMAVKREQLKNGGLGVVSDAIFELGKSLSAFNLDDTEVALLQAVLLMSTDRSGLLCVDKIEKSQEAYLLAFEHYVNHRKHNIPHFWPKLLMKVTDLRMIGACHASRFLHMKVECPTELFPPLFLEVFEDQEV
Procedure: The coding sequences of full-length human THRα and THRβ were amplified by PCR.
The PCR products of THRα and β were cloned into EcoRI–KpnI and EcoRI–XbaI sites of pTNT (Promega), respectively. The resultant expression vectors, pTNT-THRα and pTNT-THRβ, were used for the synthesis of THRs by in vitro translation.
THRα and THRβ were synthesized by in vitro translation using TNT T7 Quick Coupled Transcription and Translation kit (Promega) according to the manufacturer’s protocol. After incubation at 30 °C for 90 min, the reaction mixtures were stored at −80 °C until use.
The reaction mixture was incubated overnight at 4 °C. A nitrocellulose membrane (Optitran, 0.45 μm in pore size, Whatman) pre-blocked by E-400 buffer was placed on a dot-blot apparatus (Minifold I, GE Healthcare), and the reaction mixtures were filtered through the membrane followed by three washes with 200 μL E-400 buffer. […] Radioactive signals were scanned using Typhoon FLA9000 (GE Healthcare) and quantified by Image Quant TL software (GE Healthcare). The IC50 values for each competitor were calculated by fitting the dose–response data to the log (inhibitor) vs. response (three parameters) model using GraphPad Prism (version 8.0; GraphPad Software).
Data are shown as mean ± SD (n = 3). Data were fitted to the log (inhibitor) vs. response (three parameters) model using GraphPad Prism (version 8.0; GraphPad Software).

[6] = HFD mice, 1 μmol/kg day, RT-qPCR, reference gene Rps18
[7] = liver gene expression, 1µmol dose group vs. Vehicle

Cc1cc(OCC(=O)O)cc(C)c1Cc1ccc(O)c(C(C)C)c1 [GC-1]
Body weight, 95.00% CI of diff. ND vs. treated ([1]; 0.1 µmol dose group): -9.046 to -0.3347 | Body weight, Mean Diff. ND vs. treated ([1]; 0.1 µmol dose group): -4.69 | Body weight, 95.00% CI of diff. Vehicle vs. treated ([1]; 0.1 µmol dose group): 5.485 to 13.92 | Body weight, Mean Diff. Vehicle vs. treated ([1]; 0.1 µmol dose group): 9.704 | Body weight, 95.00% CI of diff. ND vs. treated ([1]; 1 µmol dose group): -9.111 to -0.3997 | Body weight, Mean Diff. ND vs. treated ([1]; 1 µmol dose group): -4.755 | Body weight, 95.00% CI of diff. Vehicle vs. treated ([1]; 1 µmol dose group): 5.420 to 13.86 | Body weight, Mean Diff. Vehicle vs. treated ([1]; 1 µmol dose group): 9.639 | Body weight, group mean (Fig. 3a) ([1]; 0.1 µmol dose group): 33.21 | Body weight, individual mice (Fig. 3a) ([1]; 0.1 µmol dose group): 29.83 and 31.33 and 29.67 and 36.57 and 36.31 and 35.71 and 35.26 and 34.18 and 33.67 and 29.56 | Body weight, group mean (Fig. 3a) ([1]; 1 µmol dose group): 33.27 | Body weight, individual mice (Fig. 3a) ([1]; 1 µmol dose group): 32.13 and 30.51 and 31.76 and 34.15 and 34.95 and 32.95 and 36.28 and 31.91 and 35.57 and 32.53 | decrease of body weight compared to vehicle ([1]; i.p. 0.1 µmol/kg day): ~ 20% | decrease of body weight compared to vehicle ([1]; i.p. 1 µmol/kg day): ~ 20% | Fig. 3b (weight of epididymal adipose tissue), group mean (Mean 2) ([2]; 0.1 µmol, HFD mice): 1486 | Fig. 3b (weight of epididymal adipose tissue), Mean Diff. ND vs. treatment (Tukey) ([2]; 0.1 µmol): -802.3 | Fig. 3b (weight of epididymal adipose tissue), Mean Diff. Vehicle vs. treatment (Tukey) ([2]; 0.1 µmol): 1372 | Fig. 3b (weight of epididymal adipose tissue), group mean (Mean 2) ([2]; 1 µmol, HFD mice): 1093 | Fig. 3b (weight of epididymal adipose tissue), Mean Diff. ND vs. treatment (Tukey) ([2]; 1 µmol): -410.1 | Fig. 3b (weight of epididymal adipose tissue), Mean Diff. Vehicle vs. treatment (Tukey) ([2]; 1 µmol): 1765 | Epididymal adipose weight, individual mice (Fig. 3b) ([2]; HFD mice, 0.1 µmol dose group): 1120.1 and 1287.3 and 1051.5 and 1562.9 and 1102.8 and 1733.2 and 1866.1 and 1900.9 and 1746.2 and 1485.7 | Epididymal adipose weight, individual mice (Fig. 3b) ([2]; HFD mice, 1 µmol dose group): 1157.5 and 882.3 and 1400.3 and 1216.9 and 1046.3 and 975.7 and 1192.5 and 1112.9 and 1063.5 and 886.8 | weight of the epididymal adipose tissue vs vehicle ([2]; HFD mice, i.p., dose not given (0.1 or 1 µmol/kg day), 3 weeks): decreased significantly | Serum TC (Fig. 4a), individual mouse values ([3]; 0.1 µmol, HFD mice): 76.25 and 108.417 and 114.042 and 114.792 and 113.958 and 112.208 and 91.25 and 101.875 and 101.042 and 98.458 | Serum TG (Fig. 4b), individual mouse values ([3]; 0.1 µmol, HFD mice): 47.583 and 67.583 and 60.917 and 64.75 and 51.417 and 64.25 and 45.083 and 40.917 and 120.083 | Serum TC (Fig. 4a), group mean (Mean 2) ([3]; 0.1 µmol, HFD mice): 103.2 | Serum TC (Fig. 4a), Mean Diff. ND vs. treatment (Tukey) ([3]; 0.1 µmol): 76.19 | Serum TC (Fig. 4a), Mean Diff. Vehicle vs. treatment (Tukey) ([3]; 0.1 µmol): 146.8 | Serum TC (Fig. 4a), individual mouse values ([3]; 1 µmol, HFD mice): 114.667 and 103 and 123.208 and 101.042 and 100.208 and 100.542 and 101.667 and 117.708 and 116.875 and 87.208 | Serum TG (Fig. 4b), individual mouse values ([3]; 1 µmol, HFD mice): 89.25 and 100.917 and 117.583 and 93.417 and 90.917 and 81.75 and 125.917 and 105.083 and 72.583 and 61.75 | Serum TC (Fig. 4a), group mean (Mean 2) ([3]; 1 µmol, HFD mice): 106.6 | Serum TC (Fig. 4a), Mean Diff. ND vs. treatment (Tukey) ([3]; 1 µmol): 72.81 | Serum TC (Fig. 4a), Mean Diff. Vehicle vs. treatment (Tukey) ([3]; 1 µmol): 143.5 | Mean Diff., ND vs. treated (Fig. 4b) ([3]; ND minus 0.1 µmol group): 84.09 | Mean Diff., ND vs. treated (Fig. 4b) ([3]; ND minus 1 µmol group): 52.85 | Mean Diff., Vehicle vs. treated (Fig. 4b) ([3]; Vehicle minus 0.1 µmol group): 53.09 | Mean Diff., Vehicle vs. treated (Fig. 4b) ([3]; Vehicle minus 1 µmol group): 21.86 | Mean (Fig. 4b) ([3]; 0.1 µmol, HFD mice): 62.68 | Mean (Fig. 4b) ([3]; 1 µmol, HFD mice): 93.92 | serum triglyceride level vs vehicle ([3]; HFD mice, i.p. 0.1 µmol/kg day, 3 weeks): decreased | Abluminal concentration ([4]; 10 µM on luminal side, 30 min, mean ± standard deviation (n=3)): 0.0966 ± 0.0234 µM | Papp at 30 min, 10 µM ([4]; rat, 10 μM on luminal side, read-out: apparent permeability (Papp)): 14.6 ± 3.54 ×10⁻⁶ cm/s | Dio1 expression in the liver, individual animal values ([5]; 1µmol, one value per animal): 3.829 and 3.919 and 5.168 and 4.354 and 3.692 and 2.159 and 3.566 and 3.314 and 5.1441 and 5.131 | Ldlr expression in the liver, individual animal values ([5]; 1µmol, one value per animal): 1.223 and 2.2 and 0.6334 and 0.7002 and 0.6702 and 3.257 and 0.3372 and 1.534 and 1.675 | Me1 expression in the liver, individual animal values ([5]; 1µmol, one value per animal): 1.623 and 3.346 and 4.729 and 3.444 and 1.386 and 2.548 and 5.3983 and 2.089 and 4.684 and 5.253 | Pnpla2 expression in the liver, individual animal values ([5]; 1µmol, one value per animal): 2.545 and 1.795 and 3.166 and 2.343 and 2.009 and 2.4714 and 3.073 and 2.97 and 1.253 and 2.348 | Srebp1c expression in the liver, individual animal values ([5]; 1µmol, one value per animal): 0.08164 and 0.06602 and 0.1318 and 0.09978 and 0.1458 and 0.0919 and 0.4057 and 0.2719 and 0.0552 and 0.07309 | Thrsp expression in the liver, individual animal values ([5]; 1µmol, one value per animal): 1.4847 and 1.604 and 3.066 and 1.407 and 2.579 and 0.6637 and 2.019 and 1.066 and 1.315 and 1.484 | liver expression of Dio1 vs vehicle [5, 6]: significantly upregulated | liver expression of Ldlr vs vehicle [5, 6]: not significantly different | liver expression of Me1 vs vehicle [5, 6]: significantly upregulated | liver expression of Pnpla2 vs vehicle [5, 6]: significantly higher | liver expression of Srebp1c vs vehicle [5, 6]: significantly lower | liver expression of Thrsp vs vehicle [5, 6]: increased | Pnpla2, Dunn's multiple comparisons test, Mean rank diff. (Vehicle vs. compound) [5, 7]: -16.8 | Srebp1c, Dunn's multiple comparisons test, Mean rank diff. (Vehicle vs. compound) [5, 7]: 22.27 | Pnpla2, Mean rank of treatment group (Mean rank 2) ([5]; liver gene expression, 1µmol dose group, Vehicle mean rank 8): 24.8 | Srebp1c, Mean rank of treatment group (Mean rank 2) ([5]; liver gene expression, 1µmol dose group, Vehicle mean rank […]): 11.4 | lower affinity for THRα than T3 (THRα): 10 fold | affinity to THRα lower than that to THRβ (full-length human THRα): approximately 20 fold
